Results reported in paper PMC7106896, “Synthesis and biological evaluation of 2-(4-methylsulfonyl phenyl) indole derivatives: multi-target compounds with dual antimicrobial and anti-inflammatory activities” (BMC Chemistry, 2020).

Assays:
[1] = system: Acinetobacter baumannii (ATCC 19606); assay: Antimicrobial screening (CO-ADD), growth inhibition at single concentration; format: cell-based; details: ATCC19606, at 32 µg/mL concentration, read-out: growth inhibition % Ab (A. baumannii)
Experimental: (§1) The antimicrobial study was performed by CO-ADD (The Community for Antimicrobial Drug Discovery), funded by the Wellcome Trust (UK) and The University of Queensland (Australia). Evaluation of all synthesized compounds for their antimicrobial activities was done against five pathogenic bacteria, methicillin-resistant Staphylococcus aureus (ATCC 43300) as Gram-positive bacteria, Escherichia coli (ATCC 25922), Klebsiella pneumonia (ATCC 700603), Acinetobacter baumannii (ATCC 19606) and Pseudomonas aeruginosa (ATCC 27853) as Gram-negative bacteria and antifungal activity against two pathogenic fungal strains Candida albicans (ATCC 90028) and Cryptococcus neoformans var. grubii (H99; ATCC 208821) (Table 1).

[2] = system: Klebsiella pneumonia (ATCC 700603); assay: as above; format: cell-based; details: Klebsiella pneumoniae, ATCC700603; at 32 µg/mL concentration; read-out: growth inhibition % Kp (K. pneumoniae)
Experimental: as §1

[3] = system: Pseudomonas aeruginosa (ATCC 27853); assay: as above; format: cell-based; details: ATCC27853, at 32 µg/mL concentration, read-out: growth inhibition % Pa (P. aeruginosa)
Experimental: as §1

[4] = system: methicillin-resistant Staphylococcus aureus (ATCC 43300); assay: as above; format: cell-based; details: ATCC 43300 / MRSA, at 32 µg/mL concentration, read-out: growth inhibition % Sa (MRSA)
Experimental: as §1

[5] = system: Candida albicans (ATCC 90028); assay: Antifungal screening (CO-ADD), growth inhibition at single concentration; format: cell-based; details: ATCC90028, at 32 µg/mL concentration, read-out: growth inhibition % Ca (C. albicans)
Experimental: as §1

[6] = target: T1, Ovine COX-1 (Ovis aries, UniProt P05979); assay: In vitro COX inhibition colorimetric assay; format: biochemical
T1 construct: purchased Cayman Chemical, Ann Arbor, MI, USA 760111
T1 sequence (P05979 25-600): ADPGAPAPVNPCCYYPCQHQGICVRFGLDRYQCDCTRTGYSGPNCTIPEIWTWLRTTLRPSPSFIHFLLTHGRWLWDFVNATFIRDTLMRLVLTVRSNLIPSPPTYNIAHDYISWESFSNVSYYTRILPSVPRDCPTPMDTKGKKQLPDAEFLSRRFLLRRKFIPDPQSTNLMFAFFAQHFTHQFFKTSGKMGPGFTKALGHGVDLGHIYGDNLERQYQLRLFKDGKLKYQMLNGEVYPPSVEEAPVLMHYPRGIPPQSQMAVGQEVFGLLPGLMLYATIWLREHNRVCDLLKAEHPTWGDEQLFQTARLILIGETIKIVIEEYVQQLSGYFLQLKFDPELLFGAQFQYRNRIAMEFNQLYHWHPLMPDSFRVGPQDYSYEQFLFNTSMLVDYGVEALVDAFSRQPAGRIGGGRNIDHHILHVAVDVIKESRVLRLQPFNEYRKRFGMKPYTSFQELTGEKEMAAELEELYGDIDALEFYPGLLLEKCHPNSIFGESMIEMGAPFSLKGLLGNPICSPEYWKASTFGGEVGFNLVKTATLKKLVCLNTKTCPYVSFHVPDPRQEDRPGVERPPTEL

[7] = system: human recombinant COX-2; assay: In vitro COX inhibition colorimetric assay; format: biochemical; details: COX-1 IC50/COX-2 IC50
[8] = system: carrageenan-induced rat paw edema; assay: Carrageenan-induced rat paw edema assay; format: in vivo; details: for Edema thickness (mm) ± SEM: n = 4
Experimental: Pretreatment of rats with compounds 7a–k, 8a–c, and 9a–c before injection with carrageenan in rat paw which induces inflammation and then the percentage of paw edema reduction was measured after certain hours according to previously reported procedures.

SMILES | IC50 [6] | melting point | inhibition at 32 µg/mL [1] | inhibition at 32 µg/mL [2] | inhibition at 32 µg/mL [3] | inhibition at 32 µg/mL [4] | inhibition at 32 µg/mL [5] | Selectivity index (SI) [7] | Edema inhibition % ([8]; 1 h) | Edema thickness (mm) ± SEM ([8]; 1 h) | Edema inhibition % ([8]; 3 h) | Edema thickness (mm) ± SEM ([8]; 3 h) | Edema inhibition % ([8]; 6 h) | Edema thickness (mm) ± SEM ([8]; 6 h)
CS(=O)(=O)c1ccc(-c2[nH]c3ccc(F)cc3c2-c2nc3cc(Cl)ccc3[nH]2)cc1 [Compound 8b, 5-Chloro-2-(5-fluoro-2-(4-(methylsulfonyl)phenyl)-1H-indol-3-yl)-1H-benzo[d] imidazole] | 9.41 µM | 202 to 204 °C | 22.4% | 6.56% | 14.5% | 11.3% | 13.2% | 62.73 | 52.1% | 1.256 ± 0.074 mm | 68.1% | 0.712 ± 0.066 mm | 76.2% | 0.451 ± 0.013 mm
Cc1ccc2[nH]c(-c3ccc(S(C)(=O)=O)cc3)c(/C=N/Nc3ccc(S(C)(=O)=O)cc3)c2c1 [Compound 7d, 5-Methyl-2-(4-(methylsulfonyl)phenyl)-3-((2-(4-(methylsulfonyl)phenyl) hydraz-ono)methyl)-1H-indole] | 10.4 µM | 262 to 264 °C | 35% | 4.86% | – | 15.6% | 2.54% | 69.33 | 51.6% | 1.270 ± 0.015 mm | 77.5% | 0.502 ± 0.044 mm | 78.6% | 0.405 ± 0.018 mm
Cc1ccc2[nH]c(-c3ccc(S(C)(=O)=O)cc3)c(C=NNc3ccc(F)cc3)c2c1 [Compound 7f, 3-((2-(4-Fluorophenyl)hydrazono)methyl)-5-methyl-2-(4-(methylsulfonyl)phenyl)-1H-indole] | 9.73 µM | 159 to 161 °C | 66.7% | 8.05% | – | 8.33% | 3.5% | 57.23 | 60.5% | 1.036 ± 0.009 mm | 72.7% | 0.609 ± 0.03 mm | 79.2% | 0.394 ± 0.01 mm

Continued by falling IC50 [6], values first:

IC50 [6] | melting point | SMILES | inhibition at 32 µg/mL [1] | inhibition at 32 µg/mL [2] | inhibition at 32 µg/mL [3] | inhibition at 32 µg/mL [4] | inhibition at 32 µg/mL [5] | Selectivity index (SI) [7] | Edema inhibition % ([8]; 1 h) | Edema thickness (mm) ± SEM ([8]; 1 h) | Edema inhibition % ([8]; 3 h) | Edema thickness (mm) ± SEM ([8]; 3 h) | Edema inhibition % ([8]; 6 h) | Edema thickness (mm) ± SEM ([8]; 6 h)
10.6 µM | 199 to 201 °C | CS(=O)(=O)c1ccc(-c2[nH]c3ccccc3c2C=NO)cc1 [Compound 9a, 2-(4-(Methylsulfonyl)phenyl)-1H-indole-3-carbaldehyde oxime] | 42.1% | 14.8% | 2.49% | – | 9.15% | 81.84 | 77.2% | 0.598 ± 0.050 mm | 61.8% | 0.852 ± 0.073 mm | 62.3% | 0.714 ± 0.052 mm
8.24 µM | 151 to 153 °C | Cc1ccc(NN=Cc2c(-c3ccc(S(C)(=O)=O)cc3)[nH]c3ccc(F)cc23)cc1 [Compound 7k, 5-Fluoro-2-(4-(methylsulfonyl)phenyl)-3-((2-(p-tolyl)hydrazono)methyl)-1H-indole] | 31.4% | 8.77% | 2.23% | 28.2% | 1.79% | 39.20 | 55.7% | 1.162 ± 0.088 mm | 69.1% | 0.689 ± 0.011 mm | 66.3% | 0.638 ± 0.051 mm
